This note sets out measurements from ChEMBL document CHEMBL4507328, “Data for DCP probe BAY-390” (2021).

The species named for one experiment is Rattus norvegicus. The settings on record: Compound concentration 10.0 uM.
In experiment [1] the target is T1, 5-hydroxytryptamine receptor 1A (Homo sapiens) (UniProt P08908).
T1 sequence (whole entry): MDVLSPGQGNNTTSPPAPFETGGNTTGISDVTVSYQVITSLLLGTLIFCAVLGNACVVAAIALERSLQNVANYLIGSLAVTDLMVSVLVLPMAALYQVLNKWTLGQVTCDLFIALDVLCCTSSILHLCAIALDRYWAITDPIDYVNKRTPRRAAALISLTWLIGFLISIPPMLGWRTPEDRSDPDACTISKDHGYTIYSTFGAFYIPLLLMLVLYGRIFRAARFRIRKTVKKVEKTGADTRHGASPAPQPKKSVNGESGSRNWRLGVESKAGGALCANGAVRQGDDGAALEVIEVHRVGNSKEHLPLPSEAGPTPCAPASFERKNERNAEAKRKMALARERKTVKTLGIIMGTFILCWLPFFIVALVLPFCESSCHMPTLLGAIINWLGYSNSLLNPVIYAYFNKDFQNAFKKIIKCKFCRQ
The settings on record: Compound concentration 10.0 uM.

The target in experiment [2] is Transient receptor potential cation channel subfamily V member 1 (Homo sapiens, UniProt Q8NER1). The experiment is described as follows: TRP selectivity screen (TRPV1).
Chain of Transient receptor potential cation channel subfamily V member 1 (Q8NER1 whole entry): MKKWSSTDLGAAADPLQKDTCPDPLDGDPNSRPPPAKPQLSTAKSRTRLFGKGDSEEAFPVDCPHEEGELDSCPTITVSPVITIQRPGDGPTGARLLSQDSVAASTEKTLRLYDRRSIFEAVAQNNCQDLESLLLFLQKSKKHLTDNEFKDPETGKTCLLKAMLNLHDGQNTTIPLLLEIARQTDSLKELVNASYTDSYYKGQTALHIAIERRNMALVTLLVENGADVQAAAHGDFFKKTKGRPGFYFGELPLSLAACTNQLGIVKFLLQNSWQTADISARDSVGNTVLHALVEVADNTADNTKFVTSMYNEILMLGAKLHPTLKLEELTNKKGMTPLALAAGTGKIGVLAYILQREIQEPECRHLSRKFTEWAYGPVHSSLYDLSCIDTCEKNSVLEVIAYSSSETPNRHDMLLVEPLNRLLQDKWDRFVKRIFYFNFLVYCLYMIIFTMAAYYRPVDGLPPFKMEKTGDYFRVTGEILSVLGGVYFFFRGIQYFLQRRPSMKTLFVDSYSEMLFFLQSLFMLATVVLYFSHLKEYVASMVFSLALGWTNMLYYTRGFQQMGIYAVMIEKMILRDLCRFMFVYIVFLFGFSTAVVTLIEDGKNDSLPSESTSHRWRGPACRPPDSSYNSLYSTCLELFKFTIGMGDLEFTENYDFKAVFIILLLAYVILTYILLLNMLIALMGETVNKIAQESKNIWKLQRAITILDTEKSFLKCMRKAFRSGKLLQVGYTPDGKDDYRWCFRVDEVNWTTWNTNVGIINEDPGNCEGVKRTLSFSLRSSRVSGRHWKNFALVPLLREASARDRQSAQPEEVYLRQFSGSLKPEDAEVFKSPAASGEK
Experiment [3] addresses Sodium-dependent serotonin transporter (Homo sapiens) (UniProt P31645). The settings on record: Compound concentration 10.0 uM.
In experiment [4] the target is T2, Alpha-2C adrenergic receptor (Homo sapiens) (UniProt P18825).
T2 sequence (whole entry): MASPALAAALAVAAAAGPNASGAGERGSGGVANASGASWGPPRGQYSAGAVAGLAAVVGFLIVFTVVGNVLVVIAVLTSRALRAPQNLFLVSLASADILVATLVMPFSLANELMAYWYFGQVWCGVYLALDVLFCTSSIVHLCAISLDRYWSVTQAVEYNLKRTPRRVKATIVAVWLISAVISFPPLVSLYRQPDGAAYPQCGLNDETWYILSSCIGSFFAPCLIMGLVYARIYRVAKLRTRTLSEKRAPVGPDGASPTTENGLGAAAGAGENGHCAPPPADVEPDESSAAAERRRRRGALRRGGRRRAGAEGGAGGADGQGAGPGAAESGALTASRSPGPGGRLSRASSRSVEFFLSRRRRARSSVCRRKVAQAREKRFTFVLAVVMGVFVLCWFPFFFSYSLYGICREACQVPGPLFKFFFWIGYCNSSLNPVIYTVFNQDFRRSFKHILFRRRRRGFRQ
The settings on record: Compound concentration 10.0 uM.

Experiment [5] deals with Alpha-1B adrenergic receptor (Homo sapiens) (UniProt P35368). The settings on record: Compound concentration 10.0 uM.
For a further experiment, the target named is Histamine H2 receptor (Homo sapiens, UniProt P25021). The settings on record: Compound concentration 10.0 uM.
Chain of Histamine H2 receptor (P25021 whole entry): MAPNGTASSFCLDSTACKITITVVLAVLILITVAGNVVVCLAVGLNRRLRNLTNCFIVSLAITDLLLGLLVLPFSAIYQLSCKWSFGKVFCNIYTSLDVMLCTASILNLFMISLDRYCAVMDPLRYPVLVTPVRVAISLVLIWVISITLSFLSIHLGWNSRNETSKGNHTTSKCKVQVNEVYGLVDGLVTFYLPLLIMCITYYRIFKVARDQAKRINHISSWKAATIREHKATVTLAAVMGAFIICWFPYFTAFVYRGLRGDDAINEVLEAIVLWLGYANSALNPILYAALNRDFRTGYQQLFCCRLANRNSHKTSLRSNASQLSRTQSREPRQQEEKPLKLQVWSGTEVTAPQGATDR
The target of experiment [6] is Short transient receptor potential channel 6 (Homo sapiens, UniProt Q9Y210). The experiment is described as follows: TRP selectivity screen (TRPC6).
Chain of Short transient receptor potential channel 6 (Q9Y210 whole entry): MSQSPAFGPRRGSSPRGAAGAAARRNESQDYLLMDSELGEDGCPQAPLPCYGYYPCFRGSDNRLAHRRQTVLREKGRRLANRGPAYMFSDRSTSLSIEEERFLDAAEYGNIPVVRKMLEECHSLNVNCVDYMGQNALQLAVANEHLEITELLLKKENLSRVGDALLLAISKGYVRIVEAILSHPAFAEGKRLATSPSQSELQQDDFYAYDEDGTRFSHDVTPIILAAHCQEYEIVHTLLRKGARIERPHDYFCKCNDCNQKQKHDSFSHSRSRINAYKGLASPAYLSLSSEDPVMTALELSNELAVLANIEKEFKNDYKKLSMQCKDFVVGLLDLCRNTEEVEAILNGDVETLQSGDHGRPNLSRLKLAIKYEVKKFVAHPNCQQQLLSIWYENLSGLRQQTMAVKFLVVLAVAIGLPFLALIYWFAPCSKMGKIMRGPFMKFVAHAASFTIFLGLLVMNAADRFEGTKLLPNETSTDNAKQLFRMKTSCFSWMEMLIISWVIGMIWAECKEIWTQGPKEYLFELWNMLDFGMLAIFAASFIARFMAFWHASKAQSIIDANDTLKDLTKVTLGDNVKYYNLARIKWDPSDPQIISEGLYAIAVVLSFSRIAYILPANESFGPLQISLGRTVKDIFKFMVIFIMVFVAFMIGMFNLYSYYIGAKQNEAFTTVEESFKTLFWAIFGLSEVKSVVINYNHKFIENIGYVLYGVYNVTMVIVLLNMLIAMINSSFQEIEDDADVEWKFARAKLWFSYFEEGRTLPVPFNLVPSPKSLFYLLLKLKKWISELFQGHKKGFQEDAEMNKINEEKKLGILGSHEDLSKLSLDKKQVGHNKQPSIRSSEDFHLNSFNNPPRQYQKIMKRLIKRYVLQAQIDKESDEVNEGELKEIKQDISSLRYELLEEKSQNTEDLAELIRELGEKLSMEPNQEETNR
Experiment [7] addresses D(4) dopamine receptor (Homo sapiens) (UniProt P21917). The settings on record: Compound concentration 10.0 uM.
Experiment [8] concerns the target Mu-type opioid receptor (Homo sapiens) (UniProt P35372). The settings on record: Compound concentration 10.0 uM.
Experiment [9] deals with Histamine H1 receptor (Homo sapiens) (UniProt P35367). The settings on record: Compound concentration 10.0 uM.
Chain of Histamine H1 receptor (Homo sapiens) (P35367 whole entry): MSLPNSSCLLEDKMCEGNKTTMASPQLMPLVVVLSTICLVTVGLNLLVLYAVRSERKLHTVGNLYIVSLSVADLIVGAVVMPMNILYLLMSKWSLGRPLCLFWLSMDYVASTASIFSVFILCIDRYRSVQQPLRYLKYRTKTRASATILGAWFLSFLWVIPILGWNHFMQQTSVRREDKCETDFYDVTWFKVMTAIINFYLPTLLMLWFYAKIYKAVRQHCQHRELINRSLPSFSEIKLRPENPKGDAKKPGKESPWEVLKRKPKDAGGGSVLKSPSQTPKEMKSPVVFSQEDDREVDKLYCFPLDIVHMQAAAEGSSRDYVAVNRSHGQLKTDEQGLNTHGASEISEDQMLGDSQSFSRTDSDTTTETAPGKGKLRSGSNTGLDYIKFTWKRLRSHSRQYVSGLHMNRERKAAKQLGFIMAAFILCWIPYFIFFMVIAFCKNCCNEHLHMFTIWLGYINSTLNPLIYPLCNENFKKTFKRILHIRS
The target in experiment [10] is Beta-1 adrenergic receptor (Homo sapiens) (UniProt P08588). The settings on record: Compound concentration 10.0 uM.
Chain of Beta-1 adrenergic receptor (Homo sapiens) (P08588 whole entry, looked up): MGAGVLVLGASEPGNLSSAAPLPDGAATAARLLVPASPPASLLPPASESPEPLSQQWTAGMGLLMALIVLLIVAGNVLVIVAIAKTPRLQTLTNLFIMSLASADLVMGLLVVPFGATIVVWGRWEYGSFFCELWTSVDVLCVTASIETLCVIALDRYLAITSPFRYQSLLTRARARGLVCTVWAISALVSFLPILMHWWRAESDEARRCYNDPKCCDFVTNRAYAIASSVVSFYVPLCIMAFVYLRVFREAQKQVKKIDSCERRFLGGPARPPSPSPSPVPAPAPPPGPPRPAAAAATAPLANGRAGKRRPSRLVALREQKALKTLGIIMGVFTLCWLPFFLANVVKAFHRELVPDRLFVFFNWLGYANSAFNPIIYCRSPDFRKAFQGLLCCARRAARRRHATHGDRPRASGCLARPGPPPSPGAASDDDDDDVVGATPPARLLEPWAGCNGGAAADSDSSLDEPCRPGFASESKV
Experiment [11] concerns the target Muscarinic acetylcholine receptor M3 (Homo sapiens) (UniProt P20309). The settings on record: Compound concentration 10.0 uM.
In experiment [12] the target is Alpha-1D adrenergic receptor (Homo sapiens) (UniProt P25100). The settings on record: Compound concentration 10.0 uM.
For experiment [13], the target named is T3, Muscarinic acetylcholine receptor M4 (Homo sapiens) (UniProt P08173).
T3 sequence (whole entry): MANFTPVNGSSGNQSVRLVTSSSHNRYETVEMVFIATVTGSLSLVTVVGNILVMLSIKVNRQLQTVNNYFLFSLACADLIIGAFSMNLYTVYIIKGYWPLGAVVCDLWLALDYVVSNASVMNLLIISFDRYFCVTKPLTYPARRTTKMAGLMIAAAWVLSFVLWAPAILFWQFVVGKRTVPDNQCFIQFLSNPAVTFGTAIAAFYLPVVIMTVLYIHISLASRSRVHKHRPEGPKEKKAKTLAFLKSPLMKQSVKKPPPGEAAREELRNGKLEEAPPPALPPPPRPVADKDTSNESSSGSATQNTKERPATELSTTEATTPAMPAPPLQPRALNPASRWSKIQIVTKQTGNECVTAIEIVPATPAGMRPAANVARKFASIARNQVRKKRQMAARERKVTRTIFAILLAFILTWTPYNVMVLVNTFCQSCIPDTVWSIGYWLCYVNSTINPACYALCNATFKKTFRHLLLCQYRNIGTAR
The settings on record: Compound concentration 10.0 uM.

Experiment [14] deals with Delta-type opioid receptor (Homo sapiens) (UniProt P41143). The settings on record: Compound concentration 10.0 uM.
In experiment [15] the target is Sigma intracellular receptor 2 (Homo sapiens) (UniProt Q5BJF2). The settings on record: Compound concentration 10.0 uM.
Experiment [16] concerns the target Short transient receptor potential channel 5 (Homo sapiens, UniProt Q9UL62). The experiment in a line: TRP selectivity screen (TRPC5).
The target in experiment [17] is GABA-A receptor; anion channel (Rattus norvegicus) (UniProt O09028+P15431+P18506+P18508+P19969+P20236+P23574+P23576+P28471+P28473+P30191+P62813+P63079+P63138+Q91ZM7+Q9ES14). The settings on record: Compound concentration 10.0 uM.
For experiment [18], the target named is Transient receptor potential cation channel subfamily V member 4 (Homo sapiens, UniProt Q9HBA0). The experiment in a line: TRP selectivity screen (TRPV4).
Experiment [19] addresses Transient receptor potential cation channel subfamily A member 1 (Homo sapiens, UniProt O75762). The experiment is described as follows: FLIPR Ca2+ assay (human […]).
Experiment [20] has as its target Beta-3 adrenergic receptor (Homo sapiens) (UniProt P13945). The settings on record: Compound concentration 10.0 uM.
For experiment [21], the target named is Transient receptor potential cation channel subfamily A member 1 (Rattus norvegicus, UniProt Q6RI86). The experiment in a line: FLIPR Ca2+ assay (rat TRPA1).

Activity calls are given as the source filed them. The calls are words filed in the database; no cut-off is given here.

The inhibition is the change of the read-out against control, counted positive when it falls. By IC50 is commonly meant the midpoint of a concentration-inhibition curve.

Chain of Beta-3 adrenergic receptor (Homo sapiens) (P13945 whole entry, looked up): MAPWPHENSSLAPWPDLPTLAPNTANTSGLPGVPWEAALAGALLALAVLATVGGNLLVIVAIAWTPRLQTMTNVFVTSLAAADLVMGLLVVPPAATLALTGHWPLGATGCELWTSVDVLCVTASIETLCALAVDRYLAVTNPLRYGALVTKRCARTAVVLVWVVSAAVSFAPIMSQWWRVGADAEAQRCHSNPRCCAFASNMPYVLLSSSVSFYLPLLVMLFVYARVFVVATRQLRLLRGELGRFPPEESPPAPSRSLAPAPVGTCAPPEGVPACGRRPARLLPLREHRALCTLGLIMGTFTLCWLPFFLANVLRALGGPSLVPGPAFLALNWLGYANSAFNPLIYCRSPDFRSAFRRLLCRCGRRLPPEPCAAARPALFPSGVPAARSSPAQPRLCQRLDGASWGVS
Chain of Mu-type opioid receptor (Homo sapiens) (P35372 whole entry): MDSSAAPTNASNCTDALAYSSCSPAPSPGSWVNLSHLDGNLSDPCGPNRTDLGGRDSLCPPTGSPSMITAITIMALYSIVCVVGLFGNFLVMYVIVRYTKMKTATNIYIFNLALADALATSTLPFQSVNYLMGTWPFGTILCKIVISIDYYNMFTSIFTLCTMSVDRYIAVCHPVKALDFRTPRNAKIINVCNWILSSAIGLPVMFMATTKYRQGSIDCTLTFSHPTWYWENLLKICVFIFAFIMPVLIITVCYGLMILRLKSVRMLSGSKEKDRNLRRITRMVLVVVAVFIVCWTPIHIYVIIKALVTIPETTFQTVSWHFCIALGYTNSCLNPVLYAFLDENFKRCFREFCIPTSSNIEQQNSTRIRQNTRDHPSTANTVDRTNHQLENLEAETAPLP
Chain of D(4) dopamine receptor (Homo sapiens) (P21917 whole entry): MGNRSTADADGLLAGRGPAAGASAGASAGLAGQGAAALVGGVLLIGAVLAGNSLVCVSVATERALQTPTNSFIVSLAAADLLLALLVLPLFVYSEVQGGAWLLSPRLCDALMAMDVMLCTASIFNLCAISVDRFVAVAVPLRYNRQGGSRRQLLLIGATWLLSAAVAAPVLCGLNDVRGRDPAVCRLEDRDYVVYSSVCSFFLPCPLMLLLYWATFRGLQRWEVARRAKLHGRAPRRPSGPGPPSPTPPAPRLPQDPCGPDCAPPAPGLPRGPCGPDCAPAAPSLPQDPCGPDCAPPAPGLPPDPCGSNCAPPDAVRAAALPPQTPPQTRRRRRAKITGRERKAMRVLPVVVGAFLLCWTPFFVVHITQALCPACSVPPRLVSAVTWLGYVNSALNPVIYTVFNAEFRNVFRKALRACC
Chain of Sodium-dependent serotonin transporter (Homo sapiens) (P31645 whole entry, looked up): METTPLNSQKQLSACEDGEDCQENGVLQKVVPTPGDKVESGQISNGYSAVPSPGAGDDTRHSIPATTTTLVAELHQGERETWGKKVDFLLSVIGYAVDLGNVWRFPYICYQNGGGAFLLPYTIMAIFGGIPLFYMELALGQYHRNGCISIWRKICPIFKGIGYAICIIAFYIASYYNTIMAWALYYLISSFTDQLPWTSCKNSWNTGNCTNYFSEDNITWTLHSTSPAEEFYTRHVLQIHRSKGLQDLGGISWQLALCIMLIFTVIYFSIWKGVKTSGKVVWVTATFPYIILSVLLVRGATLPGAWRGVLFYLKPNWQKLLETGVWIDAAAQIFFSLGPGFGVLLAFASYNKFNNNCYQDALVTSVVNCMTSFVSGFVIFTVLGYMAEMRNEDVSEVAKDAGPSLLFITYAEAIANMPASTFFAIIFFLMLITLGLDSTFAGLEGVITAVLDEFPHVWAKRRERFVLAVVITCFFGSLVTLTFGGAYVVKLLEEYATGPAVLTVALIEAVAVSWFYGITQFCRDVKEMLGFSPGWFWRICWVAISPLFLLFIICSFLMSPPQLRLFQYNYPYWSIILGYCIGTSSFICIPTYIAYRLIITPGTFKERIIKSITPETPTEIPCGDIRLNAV

For `O[C@]1(C(F)(F)F)CCCC[C@H]1Nc1ccc(F)cc1` [BAY-390], the inhibition in the experiment filed under Rattus norvegicus is 2.79%; in experiment [1] it was -1.95%; in experiment [3], -0.01%; in [4], 4.19%; in experiment [5], 8.7%; at Histamine H2 receptor, -1.07%. Further, the inhibition in experiment [7] was -4.08%; in experiment [8], 6.05%; in experiment [9], 25.7%; in experiment [10] it was 20.2%; in experiment [11] it was 4.73%; in experiment [12] it was -2.73%. In addition, the inhibition in [13] was 13.9%; in experiment [14] it was 21.4%; in experiment [15] it was 8.95%; in experiment [17], 4.57%; in experiment [20] it was 31%. The IC50 is > 25 µM (not active) in experiment [2]; > 25 µM (not active) in experiment [6]; 5.6 µM (not active) in [16]; > 25 µM (not active) in [18]; 0.016 µM (active) in experiment [19]; 0.063 µM (active) in [21].
As to `COc1cc(N[C@@H]2CCCC[C@]2(O)C(F)(F)F)ccc1F` [BAY-9897], the inhibition in the experiment filed under Rattus norvegicus was -1.71%; in [1] it was 6.99%; in experiment [3] it was 15.6%; in [4], -3.92%; in experiment [5], 0.41%; at Histamine H2 receptor it was 89%. In addition, the inhibition is 6.32% in experiment [7]; 10.3% in [8]; -8.03% in experiment [9]; -0.24% in [10]; 25.6% in experiment [11]; -4.64% in [12]. In addition, the inhibition is -3.95% in [13]; 14.4% in experiment [14]; 27.8% in [15]; 5.42% in experiment [17]; 34.2% in experiment [20]. Further, the IC50 was > 25 µM (not active) in experiment [2]; > 30 µM (not active) in experiment [6]; 10 µM (not active) in experiment [16]; > 25 µM (not active) in experiment [18]; > 25 µM (not active) in [19]; > 25 µM (not active) in experiment [21].
